Results as given in ChEMBL document CHEMBL1629567, “Pharmacodynamics of cidofovir for vaccinia virus infection in an in vitro hollow-fiber infection model system” (Antimicrob Agents Chemother, 2009).
pEC50: −log10 of the molar value.

Legend:
[1] = AUC in cynomolgus monkey with probenecid at 5 mg/kg single dose regimen for 13 days; type: ADME, organism-based, Macaca fascicularis; parameters: dose 5 mg/kg; details: plasma
[2] = AUC in cynomolgus monkey with probenecid at 2.5 mg/kg; type: ADME, organism-based, Macaca fascicularis; parameters: dose 2.5 mg/kg; details: plasma
[3] = AUC in cynomolgus monkey with probenecid at 5 mg/kg six dose regimen for 13 days; type: ADME, organism-based, Macaca fascicularis; parameters: dose 5 mg/kg; details: plasma
[4] = AUC (0 to 24 hrs) in hollow-fiber infection model at 3 uM as continuous infusion; type: ADME; parameters: time < 24 hr, dose 3 uM
[5] = Antiviral activity against Vaccinia virus IHD-J ATCC VR-156 infected in HeLaS3 cells after 3 to 5 days by plaque assay; type: functional, cell-based; details: ATCC VR-156, HeLa S3
Variola major virus = assay: Antiviral activity against Variola major virus; type: functional
[6] = AUC (0 to infinity) in human at 5 mg/kg administered as single dose; type: ADME, organism-based; parameters: time infinity, dose 5 mg/kg; details: plasma
Vaccinia virus [7] = assay: Antiviral activity against Vaccinia virus WR infected in cynomolgus monkey with probenecid assessed as decrease in plasma viral titer at 5 dose regimen of 2.5 mg/kg for 13 days; type: functional; details: Orthopoxvirus vaccinia, in Macaca fascicularis, 312 h
Vaccinia virus [8] = assay: Antiviral activity against Vaccinia virus WR infected in cynomolgus monkey with probenecid assessed as decrease in plasma viral titer at 6 dose regimen of 2.5 mg/kg for 13 days; type: functional, Orthopoxvirus vaccinia; parameters: scale not given: the % may be the effect or the level left
Vaccinia virus [9] = assay: Antiviral activity against Vaccinia virus IHD-W ATCC VR-1441 infected in HeLaS3 cells after 3 to 5 days by plaque assay; type: functional, organism-based; details: Orthopoxvirus vaccinia, IHD-W ATCC VR-1441, HeLa S3
[10] = AUC (0 to 24 hrs) in hollow-fiber infection model at >50 uM as continuous infusion; type: ADME; parameters: dose 50 uM, time < 24 hr
[11] = AUC in cynomolgus monkey with probenecid at 5 mg/kg five dose regimen for 13 days; type: ADME, organism-based, Macaca fascicularis; parameters: dose 5 mg/kg; details: plasma

For `Nc1ccn(C[C@@H](CO)OCP(=O)(O)O)c(=O)n1.O.O` [CIDOFOVIR], which AUC at 312 h [1] is on record?
Its AUC at 312 h is 103 µM·h.

And the AUC [2]?
The AUC was 14400 ng·h/mL.

And the AUC at 312 h [3]?
Its AUC at 312 h is 617 µM·h.

What about the AUC(0-t) at 24 h, 3 µM [4] of the same compound?
Its AUC(0-t) at 24 h, 3 µM is 72 µM·h.

What about the pEC50 [5] of the same compound?
The pEC50 was 4.73.

What about the Activity (Variola major virus) of the same compound?
Its Activity is 6 µM.

What about the AUC(0-inf) [6] of the same compound?
The AUC(0-inf) was 75 µM·h.

What about the Emax at 2.5 mg/kg (Vaccinia virus [7]) of the same compound?
The Emax at 2.5 mg/kg was 30%.

What about the Activity (Vaccinia virus [8]) of the same compound?
Its Activity is <10%.

What about the pEC50 (Vaccinia virus [9]) of the same compound?
The pEC50 was 4.69.

What about the AUC(0-t) at 24 h, 50 µM [10] of the same compound?
Its AUC(0-t) at 24 h, 50 µM is > 1200 µM·h.

What about the AUC at 312 h [11] of the same compound?
Its AUC at 312 h is 514 µM·h.
